Here are results for 2 compounds from US20130035390A1, “TREATMENT OF MULTIPLE SCLEROSIS” (Ramot at Tel-Aviv University Ltd., priority 2010, published 2013).

One assay concerns Foxp3. The experiment in a line: Western blotting of splenocyte lysates: Foxp3. Format: in vivo, mice. The note with it: day 17 post EAE-induction; FTS 20 mg/kg/day i.p., GA 15 mg/kg/day s.c. A general note: In western blotting, separated proteins are transferred to a membrane and probed.
For another assay, the system named is Ras. The experiment in a line: Western blotting of splenocyte lysates: Ras. Format: in vivo, mice. The note with it: FTS 20 mg/kg/day i.p., GA 15 mg/kg/day s.c.
The subject of assay [1] is infiltration and demyelination in the spinal cords of EAE mice. Kind of assay: Histology of lumbar spinal cord (H&E, LFB). It counts as in vivo, C57bl/6 mice. As to conditions: day 16 post EAE-induction; FTS 20 mg/kg/day i.p., GA 15 mg/kg/day s.c. The text has this:
The lumbar part of the mice's spinal cord (n=8 mice for each group) was fixed in 4% paraformaldehyde (Electric Microscopy Science, PA, USA) and embedded in paraffin and cut in 4-μm-thick axial sections. Sections were stained with hematoxylin and eosin (H&E) and luxol fast blue (LFB) and then mounted in histomount medium (Invitrogen Corporation, CA, USA). Images were examined under a light microscope and captured with a NikonDS-5Mcamera (NikonInstech, Tokyo, Japan). Quantification of the inflammation and demyelination was conducted as previously described (Mi, et al., 2007). Briefly, to quantify inflammation H&E-stained nuclei were imaged, counted and percentage of stained cells per field were calculated. Similarly the percentage of regions with demyelination per field was estimated by counting the LFB-stained images. Imaging was aided by the use of Image-Pro Plus 5.1 software (MediaCybernetics, Silver, Spring, Md.).

The next assay deals with EAE mice. The experiment in a line: Clinical signs of MOG-induced EAE, late treatment from day 9. It counts as in vivo, C57bl/6 mice. The note with it: for percent of the maximal response: score difference relative to control score 2.4. The protocol:
Eight-week-old female C57bl/6 mice were purchased from Harlan. The mice were housed under standard conditions in top filtered cages. Mice were fed a regular diet and given acidified water without antibiotics.
Disease was induced by immunization with the peptide encompassing amino acids 35-55 of rat MOG synthesis (Anaspec, Fremont, Calif.). Mice were injected subcutaneously (s.c.) at the flank, with a 200 μl emulsion containing 300 μg of MOG in complete Freund's adjuvant (CFA) enriched with 500 μg Mycobacterium tuberculosis H37Ra (Difco Laboratories, Detroit, Mich.). Pertussis toxin (List biological laboratories, California, USA), […], was injected intra-peritoneally (i.p.) immediately after the MOG injection and then 48 h later. Mice were examined daily. EAE was scored as follows: 0, no abnormality; 1, mild limp tail weakness (floppy tail); 2, tail paralysis; 3, tail paralysis and hind leg paresis; 4, hind leg paralysis or mild forelimb weakness; 5, quadriplegia or moribund state; 6, death.
Briefly, FTS (as powder) was diluted in chloroform (35.8 mg/ml of FTS=0.1 M) and kept in aliquots. The content (280 μl) of one aliquot was evaporated under nitrogen and then dissolved in 40 μl absolute ethanol and 15 μl NaOH; 2.5 ml of PBS was subsequently added. Each mouse received 0.1 ml of this solution daily (0.4 mg/mouse which on a per unit weight basis equates to 20 mg/kg) intraperitoneally (i.p.), starting from day 9 of disease induction, just before the clinical onset of paralysis.
EAE was induced in C57bl/6 mice with MOG and drug treatment started on day 9 of disease induction. The animals were divided into four (4) groups.

The subject of assay [2] is lymphocytes from the spleens of EAE mice. The experiment in a line: Ex vivo BrdU proliferation response of EAE splenocytes to antigens and mitogens. It counts as cell-based. As to conditions: in vivo FTS 20 mg/kg/day i.p., GA 15 mg/kg/day s.c. The method, then:
Pooled single cell suspension of spleens were obtained on […] post-EAE induction and assayed in vitro for their response to antigens and mitogens ([…], lipopolysacharide—LPS, and concanavalin A—ConA) by a proliferation assay. The assay was carried out by plating in each microculture well 2×10^4 cells in 0.1 ml of proliferation medium containing optimal concentration of antigens as follows: 25 μg/ml MOG, 50 μg/ml MOG, 20 μg/ml LPS or 1 μg/ml of ConA. The experiments were performed in triplicate in 96-well, flat-bottom, microtiter plates (Costar, Cambridge, USA). Cultures were incubated for 72 h in humidified atmosphere of 95% air and 5% CO2 at 37° C. Cell proliferation was determined by Colorimetric Bromodeoxyuridine (BrdU) Cell Proliferation kit (Calbiochem, Darmstadt, Germany) following manufacturer's instructions. In brief, 20 μl of BrdU labeling solution diluted 1:2000 in culture medium were added to each well for the last 18 h of culture. After removing the medium, cells were fixed, and anti-BrdU peroxidase working solution was added to each well and incubated for one (1) hour at room temperature. Following several washes, substrate solution was added, color was developed, and absorbance was measured with a microplate reader at 450 nm. The stimulation index (S.I.) was calculated as follows: the mean absorbance of cells culture in the presence of antigen divided by the mean absorbance of cells in the absence of antigen.
Lymphocytes were obtained from the spleens of mice on day 16 post immunization with MOG and subjected to ex vivo BrdU incorporation proliferation assays. […] The cells, obtained from the four groups described above, were stimulated with various mitogens ex vivo for 48 h.

The next assay relates to phospho-Erk. The experiment in a line: Western blotting of splenocyte lysates: phospho-Erk. It counts as in vivo, mice. As to conditions: FTS 20 mg/kg/day i.p., GA 15 mg/kg/day s.c.
Assay [3] concerns EAE lesions and blood-brain barrier disruption in the spinal cord. Kind of assay: MR imaging of spinal cord (L1-S3) of EAE mice, T2-map and Gd-DTPA T1-weighted. As to conditions: day 14 post EAE-induction; FTS 20 mg/kg/day i.p., GA 15 mg/kg/day s.c.; FIG. 2C. It counts as in vivo, C57bl/6 mice.
Method: The treatment effect was evaluated by MRI experiments which were conducted on day 14 after EAE-induction. […] During the MRI scanning, mice were anesthetized with isofluorane (3% for induction, 1-2% for maintenance) mixed with compressed air (1 l/min) delivered through a nasal mask. Once anesthetized, the animals were placed in a body-holder to assure reproducible positioning inside the magnet. Respiration rate was monitored and maintained throughout the experimental period at 60-80 breaths/min. MRI experiments were performed on a 7T Bruker scanner (70/30 USR Bruker BioSpec, Germany) equipped with a gradient coil system capable of producing pulse gradients of up to 400 mT/m in each of the three directions. […]
T2-map MRI was used to deliberate the EAE lesions (demyelination) in the mice's spinal cords. Lesion volume was calculated from the T2-map MR images using the MATLAB® image processing toolbox. […] From that value was then subtracted the value of a normal appearing parallel tissue in the same slice which was measured in the same way as described above. […]
The gadolinium enhancement obtained from T1-weighted MRI reflects the infusate distribution in the mice's blood-brain barrier within the spinal cord. Thus, the volume (in mm^3) of infusate distribution was calculated from the T1-weighted MRI. […] The volume in the regions of interest was counted and accumulated for each mouse.
Where [4] appears, read: 0-6 scale, FTS 20 mg/kg/day i.p., GA 100 mg/kg/day s.c., daily from day 9, FIG. 1A.
Setting [5] is: Example II: 0-6 scale, FTS 60 mg/kg/day p.o., GA 15 mg/kg/day s.c., FIG. 7A.
The mark [6] stands for this setting: Example II: FTS 60 mg/kg/day p.o., GA 15 mg/kg/day s.c., daily from day 9.
[7] abbreviates: FTS 20 mg/kg/day i.p., GA 15 mg/kg/day s.c.
[8] abbreviates: FTS 20 mg/kg/day i.p., GA 15 mg/kg/day s.c., daily from day 9, four experiments.
Where [9] appears, read: FTS 20 mg/kg/day i.p., GA 100 mg/kg/day s.c., daily from day 9, three experiments.

From the text for Foxp3: (§1) On day 16 post EAE-induction, the brains and splenocytes of the mice (n=4 per each group) were homogenized and their lysates were subjected to sodium dodecyl sulfate-olyacrylamide gel electrophoresis followed by western blotting, as described (Goldberg and Kloog, 2006), with one of the following antibodies: pan-RAS (Ab-3; Calbiochem, San Diego, Calif.), anti-CD3 Ab (AbD serotec, Oxford, UK), anti-ERK (Santa Cruz Biotechnology, CA. USA), anti phospho-ERK (Sigma, USA), anti-tubulin Ab and anti-Foxp3 Ab (eBioScience, San Diego, Calif.). Protein bands were visualized by enhanced chemiluminescence (ECL) kit (Amersham Pharmacia Biotech, Arlington Heights, Ill.) and quantified by densitometry with Image EZQuant-Gel software (Copyright©2005, EZQuant Ltd). Lysates were used to determine Ras-GTP by the glutathione S-transferase (GST)-Ras-binding domain pulldown assay, and this was followed by western blotting with anti pan-Ras Ab.
From the text for Ras: as §1
From the text for phospho-Erk: as §1

Turning to “L-glutamic acid polymer with L-alanine, L-lysine and L-tyrosine, acetate (salt) [GA]”, in the assay on Foxp3, the “increase of Foxp3 level in splenocytes vs. control” value was “No significant elevation”. Besides, the “decrease in Ras level in splenocytes vs. control” value in the assay on Ras is “does not reduce significantly”. Further, in assay [1], the “decrease in regions of demyelination (LFB) vs. control” value was 48.97%±6.78%. The “reduction of regions with inflammatory infiltrates (H&E nuclei counts) vs. control” value in assay [1] is 33.12%±6.98%. The “maximal average clinical score” value in the assay on EAE mice (setting [4]) is recorded as 1.4±0.43; in the assay with EAE mice (setting [5]) it was 1.3±0.213. For the same compound, the “animals that developed clinical signs of EAE” value with EAE mice (setting [6]) was 70%; in the assay on EAE mice (setting [8]), 77.5%; in the assay with EAE mice (setting [9]), 70.3%. The “clinical score as control score (2.4) minus treated score” value with EAE mice (setting [7]) is 0.02±0.05. In the assay with EAE mice (setting [7]), the “percent of the maximal response” value came out at 2%. Besides, the “decrease in lymphocyte proliferation vs. control” value in assay [2] (stimulated with 25 μg/ml MOG) is listed as 43.19%±6.35%; in assay [2] (stimulated with 50 μg/ml MOG) it was 41.22%±6.12%. Also, in the assay on phospho-Erk, the “decrease in phospho-Erk level in splenocytes vs. control” value is given as “does not reduce significantly”.
On to `CC(C)=CCC/C(C)=C/CC/C(C)=C/CSc1ccccc1C(=O)O` [FTS, S-trans,trans-farnesylthiosalicylic acid], for which, in the assay with Foxp3, the “increase of Foxp3 level in splenocytes vs. control” value is “No significant elevation”. In addition, the “decrease in total volume of T2-map lesions per mouse vs. control” value in assay [3] is reported as 30.1%±7%. In addition, the “decrease in regions of demyelination (LFB) vs. control” value in assay [1] stood at 59.18±10.6%. Also, the “reduction of regions with inflammatory infiltrates (H&E nuclei counts) vs. control” value in assay [1] is given as 28.44%±11.2%. Also, the “maximal average clinical score” value with EAE mice (0-6 scale, FTS 20 mg/kg/day i.p., GA 15 mg/kg/day s.c., daily from day 9, FIG. 1B) is listed as 2.15±0.45; in the assay with EAE mice (setting [4]) it was 1.07±0.6; in the assay with EAE mice (setting [5]), 1±0.33; in the assay on EAE mice (Example III: 0-6 scale, FTS 40 mg/kg/day s.c. (dissolved in GA in the combination), GA 15 mg/kg/day s.c., FIG. 7B) it was 1.72±0.45. For the same compound, the “animals that developed clinical signs of EAE” value worked out at 60% in the assay on EAE mice (setting [6]); 90% in the assay with EAE mice (Example III: FTS 40 mg/kg/day s.c. (dissolved in GA in the combination), GA 15 mg/kg/day s.c., daily from day 9); 82.5% in the assay on EAE mice (setting [8]); 60.7% in the assay on EAE mice (setting [9]). Also, in the assay on EAE mice (setting [7]), the “clinical score as control score (2.4) minus treated score” value was determined as 0.25±0.11. Moreover, in the assay on EAE mice (setting [7]), the “percent of the maximal response” value was determined as 25%. The “decrease in lymphocyte proliferation vs. control” value is 17.85%±5.34% in assay [2] (stimulated with 25 μg/ml MOG) and 29.9%±9.18% in assay [2] (stimulated with 50 μg/ml MOG). For the same compound, in the assay on phospho-Erk, the “decrease in phospho-Erk level in splenocytes vs. GA alone” value is 51.38%±5.6%. In addition, the “decrease in phospho-Erk level in splenocytes vs. control” value in the assay with phospho-Erk is 50.18%±9.1%.
